The text below walks through data of patent publication US11466047B2, “Cyclic di-nucleotide compounds as sting agonists” (Merck Sharp & Dohme Corp., priority 2017, dated 2022).

For one test, the system named is THP1 cells. Briefly: IFN-β secretion in THP1 cell culture (5 h). The settings on record: 30 μM compound, relative to 2′3′-cGAMP at 30 μM; for activation at 30 µM: Homo sapiens, THP-1, 5 h, read-out: % Effect at 30 μM relative to 2′3′-cGAMP. It is filed as cell-based, human. The protocol: The ability of compounds to stimulate the secretion of interferon-beta from THP1 cells was measured using a human IFN-β AlphaLISA kit (Perkin Elmer, Cat. No. AL265F). The basic protocol is as follows:
A Labcyte Echo 550 acoustic dispenser was used to transfer 120 nL of compound dissolved in DMSO into the wells of an empty, sterile 384-well microplate, (Corning, Cat. No. 3712). THP1 cells (American Type Culture Collection, Cat. No. TIB202) previously frozen in Recovery Medium (Life Technologies, Cat. No. 12648-010) were thawed and immediately diluted 10-fold into 37° C. assay medium (RPMI 1640+L-Glutamine & phenol red, Life Technologies, Cat. No. 11875-085; 0.5% heat inactivated fetal bovine serum, Sigma Aldrich, Cat. No. F4135; 1 mM Sodium Pyruvate, Life Technologies, Cat. No. 11360-070; lx non-essential amino acids; Life Technologies, Cat. No. 11140-050). The cell viability and count was ascertained using a Beckman Coulter V-Cell XR cell counter. The cell suspension was centrifuged at 200×g for 5 min at RT. Cells were resuspended to a density of 0.8×10^6/mL in 37° C. assay medium. Subsequent liquid transfers were performed using either a Matrix electronic multichannel pipette or an Agilent Bravo Automated Liquid Handling Platform.
The assay was started by dispensing 40 μL of the previously prepared cell suspension into the wells of the plate containing compounds. After 5 h incubation at 37° C., 5% CO2 in a humidified atmosphere, the plate of cells and compounds was centrifuged at 200×g for 5 min at RT. From each well, 5 μL of supernatant was transferred into corresponding wells of a white 384-well plate (Perkin Elmer, Cat. No. 6005620). To these supernatant-containing wells was added 10 μL of 5× Anti-Analyte Acceptor beads (50 μg/mL of AlphaLISA HiBlock Buffer) and incubated for 30 min at RT while shaking on an orbital plate shaker. To each well was added 10 μL of 5× Biotinylated Antibody Anti-analyte (5 nM in AlphaLISA HiBlock Buffer) and incubated on an orbital plate shaker for 60 min at RT or overnight at 4° C. To each well was added 25 μL of 2×SA-Donor beads (80 μg/mL in AlphaLISA HiBlock Buffer) and incubated for 30-45 min at RT in the dark while shaking on an orbital plate shaker. The plate was then read on a Perkin Elmer Envision (λex=680 nm, λem=570 nm). The percent effect of the AlphaLISA signal at each compound concentration was calculated based on 30 uM cGAMP positive controls and 0.3% DMSO negative controls. The plot of percent effect versus the log of compound concentration was fit with a 4-parameter concentration response equation to calculate EC50 values. The test compounds were tested at concentrations 30000, 10000, 3333, 1111, 370.4, 123.4, 41.2, 13.7, 4.6, and 1.5 nM with 0.3% residual DMSO. The control compound, cGAMP was tested at concentrations 100000, 33333, 11111, 3704, 1235, 412, 137, 46, and 15 nM with 0.3% residual DMSO.
Compounds of the disclosure were evaluated for IFN-β secretion in THP1 cell culture as described above. The following table tabulates the biological data for these compounds as percent activation relative to 2′3′-cGAMP at the 30 μM concentration.

A further test concerns the target full-length WT STING (Homo sapiens (Human), UniProt Q86WV6, H232R). Briefly: 3H-cGAMP filtration binding assay (WT STING). Particulars: WT STING membrane. As for the experimental part:
The ability of compounds to bind STING is quantified by their ability to compete with tritiated cGAMP ligand for human STING receptor membrane using a radioactive filter-binding assay. The binding assay employs STING receptor obtained from Trichoplusia ni cell membranes (T.ni; Expression Systems, cat #94-002F, overexpressing full-length WT STING and tritiated cGAMP ligand.
The basic WT STING filtration assay protocol is as follows:
16 nM of [^3H] c-GAMP ligand was prepared by diluting into assay buffer, and 50 uL of this working stock was manually added to each well of the assay plate. After ligand addition, 2 uL of either titrated test compound, DMSO control (Sigma #276855), or cold cGAMP control was added to the appropriate wells using a BIOMEK FX. The serially titrated compound was prepared on a Hamilton STARPlus CORE in a 96-well plate (Greiner, #651201) using a 1:3 ten-point dose response format. Following compound addition, a 2.2 ug/ml working concentration of STING membrane (SEQ. ID. No. 3) was prepared by diluting concentrated membrane into assay buffer (1×PBS; Invitrogen #SH30028.02) and douncing 7× using a manual tissue homogenizer (Wheaton, #357546). 148 uL of this prepared membrane was then manually added to each well of a 96-well deep-well polypropylene plate (Fisher Scientific, #12-566-121). Compound, ligand, and membrane then incubated for 60 min at RT before the contents of each assay plate were filtered through a 96-well GF/B filter plate (PerkinElmer, #6005250) using a TOMTEC MACH III Cell Harvester equipped with 20 mM HEPES buffer (Fisher Scientific, #BP299500). The filter plates were then dried at 55° C. for 30 min using a pressurized VWR oven before 30 uL of ULTIMA GOLD F scintillate was added to each well. Tritium levels for each reaction well were then measured using a PerkinElmer TopCount plate reader.
After normalization to controls, the percent activity for each compound concentration was calculated by measuring the amount of remaining radioactivity. The plot of percent activity versus the log of compound concentration was fit with a 4-parameter dose response equation to calculate EC50 values.

Where [1] appears, read: competition with tritiated cGAMP ligand, read-out: EC50.
Setting [2] is: EC50, competition with tritiated cGAMP ligand.

SMILES strings stand for the structures. pEC50: −log10 of the molar value. Read-outs that look alike come from different tables or passages of the source. Where only a bound is given, the exact number is not on record here.

Chain of full-length WT STING (Q86WV6 whole entry, looked up, stated change not applied): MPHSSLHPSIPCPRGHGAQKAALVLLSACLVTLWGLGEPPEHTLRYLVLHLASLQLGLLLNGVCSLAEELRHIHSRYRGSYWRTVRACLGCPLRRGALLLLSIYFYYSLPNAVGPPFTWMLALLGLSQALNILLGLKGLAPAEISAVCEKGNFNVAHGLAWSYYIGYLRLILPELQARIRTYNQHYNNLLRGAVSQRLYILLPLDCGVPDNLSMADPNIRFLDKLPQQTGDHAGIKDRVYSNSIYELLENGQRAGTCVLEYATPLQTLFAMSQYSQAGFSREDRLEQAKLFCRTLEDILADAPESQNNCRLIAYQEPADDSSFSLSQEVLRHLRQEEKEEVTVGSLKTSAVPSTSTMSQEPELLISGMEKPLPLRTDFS

As for `Nc1nc2c(ncn2[C@@H]2O[C@@H]3COP(O)(=S)O[C@H]4[C@H](F)[C@H](n5cnc6c(N)ncnc65)O[C@@H]4COP(=S)(S)O[C@@H]2[C@@H]3F)c(=O)[nH]1` (single isomer, unassigned) [Example 13], in the test on THP1 cells, the “% Effect at 30 μM relative to 2′3′-cGAMP” value was 95%. Also, the pEC50 at full-length WT STING (setting [1]) was 6.65.
In the case of `Nc1nc2c(ncn2[C@@H]2O[C@@H]3COP(O)(=S)O[C@H]4C[C@H](n5cnc6c(N)ncnc65)O[C@@H]4COP(=S)(S)O[C@@H]2C3)c(=O)[nH]1` (single isomer, unassigned) [Example 11], in the test with THP1 cells, the “% Effect at 30 μM relative to 2′3′-cGAMP” value is 51%. Besides, the pEC50 at full-length WT STING (setting [2]) was 7.47.
Regarding `Nc1nc2c(ncn2[C@@H]2O[C@@H]3COP(=O)(O)O[C@H]4[C@H](F)[C@H](n5cnc6c(N)ncnc65)O[C@@H]4COP(=S)(S)O[C@@H]2[C@@H]3F)c(=O)[nH]1` (stereo partly drawn) [Example 22, 2-amino-9-[(5R,7R,8S,12aR,14R,15S,15aR,16R)-14-(6-amino-9H-purin-9-yl)-15,16-difluoro-2-hydroxy-2-oxido-10-sulfanyl-10-sulfidooctahydro-12H-5,8-methanofuro[3,2-l][1,3,6,9,11,2,10]pentaoxadiphosphacyclotetradecin-7-yl]-1,9-dihydro-6H-purin-6-one], the activation at 30 µM in the test on THP1 cells was 117%. Moreover, the pEC50 on full-length WT STING (setting [2]) is 6.29.
For `Nc1nc2c(ncn2[C@@H]2O[C@@H]3COP(=S)(S)O[C@H]4C[C@H](n5cnc6c(N)ncnc65)O[C@@H]4COP(=O)(O)O[C@@H]2C3)c(=O)[nH]1` (stereo partly drawn) [Example 18, 2-amino-9-[(5S,7R,8R,12aR,14R,15aS)-14-(6-amino-9H-purin-9-yl)-10-hydroxy-10-oxido-2-sulfanyl-2-sulfidooctahydro-12H-5,8-methanofuro[3,2-1][1,3,6,9,11,2,10]pentaoxadiphosphacyclotetradecin-7-yl]-1,9-dihydro-6H-purin-6-one], the activation at 30 µM in the test on THP1 cells stood at 153%. Further, the negative-log EC50 (pEC50) on full-length WT STING (setting [1]) is 9.00.
On to `Nc1nc2c(ncn2[C@@H]2O[C@@H]3COP(O)(=S)O[C@H]4C[C@H](n5ccc6c(N)ncnc65)O[C@@H]4COP(=S)(S)O[C@@H]2C3)c(=O)[nH]1` (single isomer, unassigned) [Example 14], for which, in the test with THP1 cells, the activation at 30 µM was determined as 422%. Further, the pEC50 at full-length WT STING (setting [1]) was 6.61.
Turning to `Nc1nc2c(ncn2[C@@H]2O[C@@H]3COP(=S)(S)O[C@H]4C[C@H](n5cnc6c(=O)[nH]cnc65)O[C@@H]4COP(O)(=S)O[C@@H]2C3)c(=O)[nH]1` (single isomer, unassigned) [Example 25], the “% Effect at 30 μM relative to 2′3′-cGAMP” value with THP1 cells worked out at 281%. Also, the pEC50 at full-length WT STING (setting [1]) was 8.70.
Take `Nc1nc2c(ncn2[C@@H]2O[C@@H]3COP(=S)(S)O[C@H]4[C@H](F)[C@H](n5cnc6c(N)ncnc65)O[C@@H]4COP(=O)(O)O[C@@H]2[C@@H]3F)c(=O)[nH]1` (stereo partly drawn) [Example 19, 2-amino-9-[(5R,7R,8S,12aR,14R,15S, 15aR,16R)-14-(6-amino-9H-purin-9-yl)-15,16-difluoro-10-hydroxy-10-oxido-2-sulfanyl-2-sulfidooctahydro-12H-5,8-methanofuro[3,2-1][1,3,6,9,11,2,10]pentaoxadiphosphacyclotetradecin-7-yl]-1,9-dihydro-6H-purin-6-one]: the activation at 30 µM in the test with THP1 cells was 250%. For the same compound, the pEC50 at full-length WT STING (setting [1]) was 9.00.
Consider `Nc1nc2c(ncn2[C@@H]2O[C@@H]3COP(=S)(S)O[C@H]4[C@H](F)[C@H](n5cnc6c(=O)[nH]cnc65)O[C@@H]4COP(O)(=S)O[C@@H]2[C@@H]3F)c(=O)[nH]1` (stereo partly drawn) [Example 27, 2-amino-9-[(5R,7R,8S,12aR,14R,15S,15aR,16R)-15,16-difluoro-10-hydroxy-14-(6-oxo-1,6-dihydro-9H-purin-9-yl)-2-sulfanyl-2,10-disulfidooctahydro-12H-5,8-methanofuro[3,2-1][1,3,6,9,11,2,10]pentaoxadiphosphacyclotetradecin-7-yl]-1,9-dihydro-6H-purin-6-one], for which the activation at 30 µM in the test with THP1 cells came to 164%.
As to `Nc1nc2c(ncn2[C@@H]2O[C@@H]3COP(O)(=S)O[C@H]4C[C@H](n5cnc6c(=O)[nH]cnc65)O[C@@H]4COP(=S)(S)O[C@@H]2C3)c(=O)[nH]1` (stereo partly drawn) [Example 26, 2-amino-9-[(5S,7R,8R,12aR,14R,15aS)-2-hydroxy-14-(6-oxo-1,6-dihydro-9H-purin-9-yl)-10-sulfanyl-2,10-disulfidooctahydro-12H-5,8-methanofuro[3,2-1][1,3,6,9,11,2,10]pentaoxadiphosphacyclotetradecin-7-yl]-1,9-dihydro-6H-purin-6-one], the activation at 30 µM with THP1 cells is 75%. Further, the pEC50 at full-length WT STING (setting [1]) was 6.39.
On to `Nc1nc2c(ncn2[C@@H]2O[C@@H]3COP(=S)(S)O[C@H]4C[C@H](n5cnc6c(N)ncnc65)O[C@@H]4COP(O)(=S)O[C@@H]2C3)c(=O)[nH]1` (single isomer, unassigned) [Example 4], for which the “% Effect at 30 μM relative to 2′3′-cGAMP” value with THP1 cells worked out at 146%. In addition, at full-length WT STING (setting [1]), the pEC50 was greater than 9.00.
For the compound `Nc1nc2c(ncn2[C@@H]2O[C@@H]3COP(O)(=S)O[C@H]4[C@H]5OC[C@]4(COP(=S)(S)O[C@@H]2[C@H]3F)O[C@H]5n2cnc3c(N)ncnc32)c(=O)[nH]1` (single isomer, unassigned) [Example 15], the activation at 30 µM with THP1 cells was 357%. For the same compound, the pEC50 on full-length WT STING (setting [1]) is 7.10.
Consider `Nc1nc2c(ncn2[C@@H]2O[C@@H]3COP(O)(=S)O[C@H]4[C@H](F)[C@H](n5cnc6c(N)ncnc65)O[C@@H]4COP(=S)(S)O[C@@H]2[C@@H]3F)c(=O)[nH]1` (single isomer, unassigned) [Example 12], for which, in the test on THP1 cells, the “% Effect at 30 μM relative to 2′3′-cGAMP” value is on record as 116%. For the same compound, the pEC50 at full-length WT STING (setting [1]) is 6.77.
Take `Nc1nc2c(ncn2[C@@H]2O[C@@H]3COP(=O)(O)O[C@H]4C[C@H](n5cnc6c(N)ncnc65)O[C@@H]4COP(=S)(S)O[C@@H]2C3)c(=O)[nH]1` (stereo partly drawn) [Example 23, 2-amino-9-[(5S,7R,8R,12aR,14R,15aS)-14-(6-amino-9H-purin-9-yl)-2-hydroxy-2-oxido-10-sulfanyl-10-sulfidooctahydro-12H-5,8-methanofuro[3,2-1] [1,3,6,9,11,2,10]pentaoxadiphosphacyclotetradecin-7-yl]-1,9-dihydro-6H-purin-6-one]: in the test with THP1 cells, the activation at 30 µM was found to be 152%. The pEC50 at full-length WT STING (setting [1]) was 7.16.

Broadly, the pEC50 is the EC50 on a negative log10 scale, so that one unit is a factor of ten.
